Species: Rattus norvegicus
Assay: DrugMatrix - Regimen: Daily Repeat
Type: toxicity, organism-based, Sprague-Dawley
Design: regimen Daily Repeat, gender Male, age 6-8 weeks
Details: in vivo, po, route oral GAVAGE, vehicle .5 % CMC; for BASOPHIL / EOSINOPHIL / ERYTHROCYTE COUNT / HEMATOCRIT / HEMOGLOBIN / LEUKOCYTE COUNT / LYMPHOCYTE / MEAN CORPUSCULAR HEMOGLOBIN / MEAN CORPUSCULAR HEMOGLOBIN CONCENTRATION / MEAN CORPUSCULAR VOLUME / MONOCYTE / NEUTROPHIL / PLATELET COUNT: tissue Blood; for ALANINE AMINOTRANSFERASE / ALBUMIN / ALKALINE PHOSPHATASE / ASPARTATE AMINOTRANSFERASE / BLOOD UREA NITROGEN / CHLORIDE / CHOLESTEROL / CREATINE PHOSPHOKINASE / CREATININE / GLUCOSE / PHOSPHORUS / POTASSIUM / SODIUM / TOTAL BILIRUBIN / TOTAL PROTEIN: tissue Plasma
[1] = 0 mg/kg, 72 h, dose level Control, time 3 day
[2] = 0 mg/kg, 120 h, dose level Control, time 5 day
[3] = 5 mg/kg, 72 h, dose level Low, time 3 day
[4] = 5 mg/kg, 120 h, dose level Low, time 5 day

CN1C(=O)CN=C(c2ccccc2)c2cc([N+](=O)[O-])ccc21 [NIMETAZEPAM]
BASOPHIL [1]: 1.52% | EOSINOPHIL [1]: 0.98% | ERYTHROCYTE COUNT [1]: 6.96 x10E6/uL | HEMATOCRIT [1]: 44.65% | HEMOGLOBIN [1]: 13.62 G/DL | LEUKOCYTE COUNT [1]: 9.83 x10E3/uL | LYMPHOCYTE [1]: 76.48% | MEAN CORPUSCULAR HEMOGLOBIN [1]: 19.57 pg | MEAN CORPUSCULAR HEMOGLOBIN CONCENTRATION [1]: 30.47 G/DL | MEAN CORPUSCULAR VOLUME [1]: 64.22 fL | MONOCYTE [1]: 2.13% | NEUTROPHIL [1]: 18.6% | PLATELET COUNT [1]: 1217.17 x10E3/uL | ALANINE AMINOTRANSFERASE [1]: 41 u/L | ALBUMIN [1]: 3.77 G/DL | ALKALINE PHOSPHATASE [1]: 411.83 u/L | ASPARTATE AMINOTRANSFERASE [1]: 62.83 u/L | BLOOD UREA NITROGEN [1]: 15.17 mg/dL | CHLORIDE [1]: 104.33 MEQ/L | CHOLESTEROL [1]: 71.17 mg/dL | CREATINE PHOSPHOKINASE [1]: 123.5 u/L | CREATININE [1]: 0.55 mg/dL | GLUCOSE [1]: 182.67 mg/dL | PHOSPHORUS [1]: 11.23 mg/dL | POTASSIUM [1]: 7.03 MEQ/L | SODIUM [1]: 148 MEQ/L | TOTAL BILIRUBIN [1]: 0.57 mg/dL | TOTAL PROTEIN [1]: 6.85 G/DL | BASOPHIL [2]: 1.35% | EOSINOPHIL [2]: 0.43% | ERYTHROCYTE COUNT [2]: 6.96 x10E6/uL | HEMATOCRIT [2]: 44.35% | HEMOGLOBIN [2]: 13.98 G/DL | LEUKOCYTE COUNT [2]: 9.45 x10E3/uL | LYMPHOCYTE [2]: 80.83% | MEAN CORPUSCULAR HEMOGLOBIN [2]: 20.1 pg | MEAN CORPUSCULAR HEMOGLOBIN CONCENTRATION [2]: 31.52 G/DL | MEAN CORPUSCULAR VOLUME [2]: 63.72 fL | MONOCYTE [2]: 2.37% | NEUTROPHIL [2]: 14.05% | PLATELET COUNT [2]: 1298 x10E3/uL | ALANINE AMINOTRANSFERASE [2]: 42.17 u/L | ALBUMIN [2]: 3.77 G/DL | ALKALINE PHOSPHATASE [2]: 419 u/L | ASPARTATE AMINOTRANSFERASE [2]: 66.67 u/L | BLOOD UREA NITROGEN [2]: 16.67 mg/dL | CHLORIDE [2]: 103.17 MEQ/L | CHOLESTEROL [2]: 66.33 mg/dL | CREATINE PHOSPHOKINASE [2]: 148.33 u/L | CREATININE [2]: 0.58 mg/dL | GLUCOSE [2]: 196.83 mg/dL | PHOSPHORUS [2]: 11.8 mg/dL | POTASSIUM [2]: 6.47 MEQ/L | SODIUM [2]: 148.33 MEQ/L | TOTAL BILIRUBIN [2]: 0.53 mg/dL | TOTAL PROTEIN [2]: 6.77 G/DL | BASOPHIL [3]: 2.83% | EOSINOPHIL [3]: 0.3% | ERYTHROCYTE COUNT [3]: 7.13 x10E6/uL | HEMATOCRIT [3]: 44.5% | HEMOGLOBIN [3]: 13.9 G/DL | LEUKOCYTE COUNT [3]: 11.4 x10E3/uL | LYMPHOCYTE [3]: 76.5% | MEAN CORPUSCULAR HEMOGLOBIN [3]: 19.5 pg | MEAN CORPUSCULAR HEMOGLOBIN CONCENTRATION [3]: 31.2 G/DL | MEAN CORPUSCULAR VOLUME [3]: 62.43 fL | MONOCYTE [3]: 2.87% | NEUTROPHIL [3]: 16.73% | PLATELET COUNT [3]: 1489.33 x10E3/uL | ALANINE AMINOTRANSFERASE [3]: 36.67 u/L | ALBUMIN [3]: 3.67 G/DL | ALKALINE PHOSPHATASE [3]: 291 u/L | ASPARTATE AMINOTRANSFERASE [3]: 57 u/L | BLOOD UREA NITROGEN [3]: 11.67 mg/dL | CHLORIDE [3]: 102.67 MEQ/L | CHOLESTEROL [3]: 68.67 mg/dL | CREATINE PHOSPHOKINASE [3]: 130.67 u/L | CREATININE [3]: 0.5 mg/dL | GLUCOSE [3]: 173 mg/dL | PHOSPHORUS [3]: 11.97 mg/dL | POTASSIUM [3]: 6.37 MEQ/L | SODIUM [3]: 149.67 MEQ/L | TOTAL BILIRUBIN [3]: 0.27 mg/dL | TOTAL PROTEIN [3]: 6.6 G/DL | BASOPHIL [4]: 0.95% | EOSINOPHIL [4]: 2.55% | ERYTHROCYTE COUNT [4]: 7 x10E6/uL | HEMATOCRIT [4]: 43.15% | HEMOGLOBIN [4]: 13.8 G/DL | LEUKOCYTE COUNT [4]: 10.5 x10E3/uL | LYMPHOCYTE [4]: 75.25% | MEAN CORPUSCULAR HEMOGLOBIN [4]: 19.7 pg | MEAN CORPUSCULAR HEMOGLOBIN CONCENTRATION [4]: 32 G/DL | MEAN CORPUSCULAR VOLUME [4]: 61.5 fL | MONOCYTE [4]: 2.15% | NEUTROPHIL [4]: 18.45% | PLATELET COUNT [4]: 1383 x10E3/uL | ALANINE AMINOTRANSFERASE [4]: 34.67 u/L | ALBUMIN [4]: 3.57 G/DL | ALKALINE PHOSPHATASE [4]: 351 u/L | ASPARTATE AMINOTRANSFERASE [4]: 62.67 u/L | BLOOD UREA NITROGEN [4]: 11.67 mg/dL | CHLORIDE [4]: 102.67 MEQ/L | CHOLESTEROL [4]: 62.67 mg/dL | CREATINE PHOSPHOKINASE [4]: 168.67 u/L | CREATININE [4]: 0.6 mg/dL | GLUCOSE [4]: 170.33 mg/dL | PHOSPHORUS [4]: 13 mg/dL | POTASSIUM [4]: 7.1 MEQ/L | SODIUM [4]: 147 MEQ/L | TOTAL BILIRUBIN [4]: 0.4 mg/dL | TOTAL PROTEIN [4]: 6.37 G/DL
